Test results published in patent publication US6635278B1, “Pharmaceutical formulations” (Gilead Sciences, Inc., priority 1998, dated 2003).

Columns and labels:
[1] = AD solubility in crystallization solvents; format: physicochemical
[2] = Stability of aqueous AD solutions versus pH; format: physicochemical

## CC(C)(C)C(=O)OCOP(=O)(COCCn1cnc2c(N)ncnc21)OCOC(=O)C(C)(C)C [AD, 9-[2-[[bis[(pivaloyloxy)methyl]phosphono]methoxy]ethyl]adenine]
[1]; methanol or CH2Cl2
  AD content the solvent can contain: more than 50%
[1]; most crystallization solvents at room temperature
  upper limit of solubility of AD: 10-41%
[1]; organic solvent or mixture, in di-n-butyl ether
  solubility: < 300 µg/mL
[2]
  pH of maximum stability: 3-5
